Measurements as given in PubChem BioAssay AID602215 (Sanford-Burnham Center for Chemical Genomics, 2012).
Calls of active or inactive are those of the source.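 The calls were made as follows: active = IC50 of 20 µM or lower; inactive = the rest.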

Test system: HL-1 cardiomyocytes, H2O2 injury, ATP luminescence, 2 h
Test: H2O2-induced HL-1 cell death suppression – ATP luminescence, dose response (AID 602215);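 also: potency is for protection so actives raise ATP signal against peroxide damage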

Structure (SMILES) | IC50
COc1ccc(-c2csc(NC(=O)CCCc3nc4ccccc4c(=O)[nH]3)n2)cc1OC | 11.9 µM
COc1ccc(-c2cc(C(=O)N(C)Cc3ccc(OC)c(OC)c3OC)c3ccccc3n2)cc1OC | 11.6 µM
O=C(Nc1ccccc1)c1nc[nH]c1C(=O)NCCCCNC(=O)c1[nH]cnc1C(=O)Nc1ccccc1 | 39.6 µM (inactive)
CCOC(=O)c1ccc(NC(=O)c2nc[nH]c2C(=O)NCCCCCNC(=O)OC(C)(C)C)cc1 | > 79 µM (inactive)
C[C@H](NC(=O)c1nc[nH]c1C(=O)NCC(=O)OCc1ccccc1)c1ccccc1 | > 79 µM (inactive)
COc1ccc(C(=O)Nc2cccc(/C(C)=N/NC(=O)c3ccc([N+](=O)[O-])c(C)c3)c2)cc1OC | > 79 µM (inactive)
CC(=O)Nc1ccc(Nc2nc(-c3sc(NC(C)=O)nc3C)cs2)cc1 | 20.1 µM (inactive)
COC(=O)c1ccc(N)c(N=CC2=C(O)CC(C)(C)CC2=O)c1 | 41.4 µM (inactive)
NC(=O)c1nsc(C(=O)N(Cc2ccco2)C(C(=O)NCc2ccccc2)c2ccc(O)cc2)c1N (centres undefined) | 45.3 µM (inactive)
CNC(=O)COC(=O)/C=C/c1cn(-c2ccccc2)nc1-c1ccc(C)o1 | 37.1 µM (inactive)
CC(C)c1ccccc1NC(=O)COC(=O)c1c2c(nc3ccccc13)CCN(Cc1ccccc1)C2 | 41.4 µM (inactive)
CC(=O)Nc1cc(-c2ccc(C(=O)NC3CC3)cc2)cn2c(-c3cccc(C(C)=O)c3)cnc12 | > 79 µM (inactive)
O=C(NCC(=O)N(Cc1ccccc1)C(C(=O)NC1CCCCC1)c1ccco1)c1ccco1 (centres undefined) | > 79 µM (inactive)
CCOC(=O)c1c(C)[nH]c(C)c1C(=O)COc1ncnc2cc([N+](=O)[O-])ccc12 | > 79 µM (inactive)
CC(=O)c1ccc(-c2cnc3c(NC=O)cc(-c4cccc(NS(C)(=O)=O)c4)cn23)cc1 | 12.9 µM
O=C(N/N=C/c1ccccn1)c1cc(-c2cccc3ccccc23)n[nH]1 | > 79 µM (inactive)
O=C(C(=O)N(Cc1ccccc1)Cc1ccccc1)c1c(-c2ccccc2)[nH]c2ccccc12 | > 79 µM (inactive)
Cc1cccc(NC(=O)c2nc[nH]c2C(=O)NCCCCNC(=O)c2[nH]cnc2C(=O)Nc2cccc(C)c2)c1 | > 79 µM (inactive)
O=C(Nc1cc(S(=O)(=O)N2CCOCC2)ccc1N1CCCCC1)c1cc(-c2ccccn2)nc2ccccc12 | 3.6 µM
NC(=O)c1nsc(C(=O)N(c2ccccc2F)C(C(=O)NCc2ccc(F)cc2)c2ccc(O)cc2)c1N (centres undefined) | > 79 µM (inactive)
COc1ccccc1NC(=O)c1cc(-c2cc(OC)c(OC)c(OC)c2)nc2ccccc12 | 13.4 µM
CCOc1ccc(C(C(=O)NC2CCCC2)N(C(=O)c2snc(C(N)=O)c2N)c2cccc(O)c2)cc1 (centres undefined) | 4.32 µM
CCN1C(=O)/C(=C/c2nc3ccccc3c(=O)[nH]2)c2ccccc21 | 5.41 µM
COc1ccc(-c2nn(-c3ccccc3)cc2C(=O)Nc2nccs2)cc1 | 13.7 µM
CC(=O)Nc1cc(-c2cccc(NS(C)(=O)=O)c2)cn2c(-c3cccc(C(C)=O)c3)cnc12 | 11.4 µM

Structure (SMILES) | IC50
CCOc1ccccc1Nc1nnc(SCc2nnc(-c3cc(OC)c(OC)c(OC)c3)o2)s1 | 10 µM
c1ccc(-c2nc(-n3ccnc3)nc(-n3ccnc3)n2)cc1 | > 79 µM (inactive)
COc1ccc(-c2csc(NC(=O)c3cccc(N4C(=O)CCC4=O)c3)n2)cc1OC | > 79 µM (inactive)
Cc1cccc(NC(=O)c2oc3ccc(S(=O)(=O)N4CCOCC4)cc3c2C)c1C | 4.13 µM
COC(=O)c1cc2c(-c3ccccc3)cc3ccccn3c-2c1C(=O)OC | > 79 µM (inactive)
COc1cc(OC)cc(C(=O)Nc2ccc(C(=O)Nc3ccccc3OC)cc2)c1 | > 79 µM (inactive)
O=C(Nc1cccc(NC(=O)c2ccc([N+](=O)[O-])o2)c1)c1ccco1 | > 79 µM (inactive)
O=C(COC(=O)c1c2c(nc3ccccc13)/C(=C/c1cccc([N+](=O)[O-])c1)CCC2)NC1CCS(=O)(=O)C1 (centres undefined) | > 79 µM (inactive)
COc1cccc(CN(C)C(=O)C(Cc2ccccc2)NC(=O)c2ccccc2)c1OC (centres undefined) | > 79 µM (inactive)
COc1cc(OC)cc(-c2cc3nc(C)c(CCC(=O)Nc4nc(C)cs4)c(C)n3n2)c1 | > 79 µM (inactive)
COc1cc(/C=N/NC(=O)NC23CC4CC(CC(C4)C2)C3)ccc1OCC(N)=O | 48.3 µM (inactive)
CCOC(=O)C1CCN(c2cc3c(cc2NC(=O)c2ccccc2Cl)n(C)c(=O)n3C)CC1 | > 79 µM (inactive)
COc1cc(CN2C[C@@H](CO)O[C@@H](n3cnc4c(Nc5ccccc5)ncnc43)C2)cc(OC)c1OC | 20.5 µM (inactive)
COC(=O)c1cc2ccccn2c2c(C(=O)OC)c(C(=O)OC)cc1-2 | > 79 µM (inactive)
COc1cc(-c2cnc3c(NC=O)cc(-c4cccnc4)cn23)cc(OC)c1OC | 16.9 µM
COc1cc(-c2cc(C(=O)NCc3ccco3)c3ccccc3n2)cc(OC)c1OC | 23.5 µM (inactive)
CC1(c2ccccc2)NC(=O)N(CC(=O)Nc2cccc(/C=C/c3ccccn3)c2)C1=O (centres undefined) | 14 µM
COc1ccc(-n2c(/C=C/c3ccc(O)c(OC)c3)nc3ccccc3c2=O)cc1 | 12.1 µM
CC(C)(C)OC(=O)CNC(=O)c1[nH]cnc1C(=O)NCC(=O)OCc1ccccc1 | 28.2 µM (inactive)
Nc1c(C(=O)N/N=C/c2cccnc2)oc2nc(-c3ccccc3)cc(-c3ccco3)c12 | > 79 µM (inactive)
COc1cc(/C=C(\C#N)c2nc3ccc(C)cc3[nH]2)c([N+](=O)[O-])cc1OC | > 79 µM (inactive)
COc1cc(-c2cc(NC(C)=O)c3ncc(-c4cc(OC)c(OC)c(OC)c4)n3c2)cc(OC)c1OC | 1.48 µM
C[C@@H]1CN([C@@H](C)CO)C(=O)c2cc(NC(=O)Nc3ccccc3)ccc2O[C@H]1CN(C)C(=O)Nc1cccc2ccccc12 | > 79 µM (inactive)
COCCCN(Cc1ccco1)C(=O)Cn1ncc2c([nH]c3ccccc32)c1=O | > 79 µM (inactive)
COc1cc(C(=O)N/N=C/c2ccc(OC(=O)c3cccc(C)c3)c(OC)c2)ccc1O | 31.2 µM (inactive)

Structure (SMILES) | IC50
CC(=O)Nc1cccc(-c2cc(NC(C)=O)c3ncc(-c4ccccc4)n3c2)c1 | > 79 µM (inactive)
COc1cc(C(=O)N/N=C/c2sc(N3CCOCC3)nc2-c2ccccc2)cc(OC)c1OC | 48.4 µM (inactive)
COc1ccc(-c2ccc3c(c2)S(=O)(=O)c2cccc(C(=O)NC[C@@H]4CCCO4)c2C3=O)cc1OC | > 79 µM (inactive)
COc1cc(-c2cc(C(=O)Nc3cccc(C(C)=O)c3)c3ccccc3n2)cc(OC)c1OC | 3.99 µM
Cn1c(=O)c2[nH]c(NN=Cc3ccc(Br)cc3)nc2n(C)c1=O | > 79 µM (inactive)
NC(=O)COc1ccc2oc(=O)cc(-c3cc4ccccc4o3)c2c1 | 18.3 µM
CC(OC(=O)c1cc(-c2cccnc2)nc2ccccc12)C(=O)Nc1ccc2ccccc2c1 (centres undefined) | > 79 µM (inactive)
COc1cc(-c2cc(NC(C)=O)c3ncc(-c4ccc(C(C)=O)cc4)n3c2)cc(OC)c1OC | > 79 µM (inactive)
O=C(CN(c1ccc2c(c1)OCCO2)S(=O)(=O)c1ccccc1)Nc1ccc2c(c1)OCO2 | > 79 µM (inactive)
COc1ccc(-c2ccc3c(c2)S(=O)(=O)c2cccc(C(=O)N4CCN(c5c(Cl)cncc5Cl)CC4)c2C3=O)cc1OC | > 79 µM (inactive)
Cc1ccc(C)c(NC(=O)C(Sc2nc3ccccc3c(=O)n2CC(C)C)c2ccccc2)c1 (centres undefined) | > 79 µM (inactive)
NC(=O)c1cc2ccccc2o/c1=N\NC(=O)c1ccc(F)cc1 | 3.33 µM
O=[N+]([O-])c1ccc(Nc2nc(N/N=C/c3cccc(F)c3)nc(N3CCCC3)n2)cc1 | > 79 µM (inactive)
CCCn1nc(C(=O)Nc2nc(-c3ccccn3)cs2)c2ccccc2c1=O | 7.02 µM
COc1cc(NC(=O)c2ccco2)c(OC)cc1NC(=O)c1cc(OC)c(OC)c(OC)c1 | 21 µM (inactive)
COc1cccc(Nc2nc(-c3sc(NC(=O)c4ccco4)nc3C)cs2)c1 | 26.4 µM (inactive)
COc1cc(Nc2nc3ccccc3n3nnnc23)cc(OC)c1OC | > 79 µM (inactive)
COc1ccc(-c2cc(-c3nnc(COC(=O)C4CC4)o3)c3ccccc3n2)cc1OC | > 79 µM (inactive)
Cc1nn(-c2ccccc2)c(N2CCCC2)c1/C=N/NC(=O)c1cc(-c2ccccn2)nc2ccccc12 | > 79 µM (inactive)
COc1ccc(CCNc2nc(-c3cccnc3)nc3ccccc23)cc1OC | > 79 µM (inactive)
COc1ccccc1N1CCN(C(=O)c2ccc3nc(-c4ccco4)c(-c4ccco4)nc3c2)CC1 | > 79 µM (inactive)
Fc1ccc(-n2cc(-c3ccccc3)c3c(N4CCOCC4)ncnc32)cc1 | > 79 µM (inactive)
CC12C=CC(=O)CC1CCC1C2CCC2(C)C(O)C(O)CC12 (centres undefined) | > 79 µM (inactive)
COc1cc(C(=O)NCC(=O)N/N=C/c2ccc(-c3cccc([N+](=O)[O-])c3)o2)cc(OC)c1OC | 9.15 µM
